According to patent US20250186437A1, “CARBOLINE COMPOUNDS AND USE THEREOF” (PTC Therapeutics, Inc., priority 2021, published 2025):
pIC50: −log10 of the molar value.

test system: MOLM-13 cells; experiment: MOLM-13 Cell Proliferation Assay (indicator of DHODH inhibition); type: cell-based; settings: Homo sapiens, 72 Hours of culture, CellTiter-Glo, no uridine
Outline: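 Low-passage MOLM-13 cells (10^4/well) in RPMI 1640 + 10% FBS exposed to compound (0.5% DMSO final) for 72 h at 37 °C, 5% CO2. Viability read by CellTiter-Glo luminescence; growth reflects de novo pyrimidine synthesis dependent on DHODH.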

How did the pIC50 turn out when Cc1ccc(C2c3[nH]c4ccc(-n5nccn5)cc4c3CCN2c2nccc(C(F)(F)F)n2)c(F)c1F (stereo not shown) [Compound 502, 1-(2,3-difluoro-4-methylphenyl)-6-(2H-1,2,3-triazol-2-yl)-2-[4-(trifluoromethyl)pyrimidin-2-yl]-2,3,4,9-tetrahydro-1H-pyrido[3,4-b]indole] was run?
Its pIC50 is 8.68.

How did the pIC50 turn out when Cc1ccc(C2c3[nH]c4cc(F)c(Cl)cc4c3CCN2c2nccc(Cl)n2)cc1 (stereo not shown) [Compound 43, 6-chloro-2-(4-chloropyrimidin-2-yl)-7-fluoro-1-(4-methylphenyl)-2,3,4,9-tetrahydro-1H-pyrido[3,4-b]indole] was run?
Its pIC50 is 8.22.

How did the pIC50 turn out when Fc1cnc(N2CCc3c([nH]c4ccc(Cl)cc34)C2c2cnc(N3CCOCC3)nc2)nc1 (stereo not shown) [Compound 364, 6-chloro-2-(5-fluoropyrimidin-2-yl)-1-[2-(morpholin-4-yl)pyrimidin-5-yl]-2,3,4,9-tetrahydro-1H-pyrido[3,4-b]indole] was run?
The pIC50 was 8.00.

With Cc1ccc(C2c3[nH]c4ccc(Cl)cc4c3CCN2c2nccc(C#N)n2)cc1 (stereo not shown) [Compound 378, 2-[6-chloro-1-(4-methylphenyl)-1,3,4,9-tetrahydro-2H-pyrido[3,4-b]indol-2-yl]pyrimidine-4-carbonitrile] as the compound, how does the pIC50 read?
The pIC50 was 8.15.

With Cc1nc(N2CCc3c([nH]c4ccc(Cl)cc34)C2c2ccc(N3CCOCC3)nc2)nc(C)c1F (stereo not shown) [Compound 367, 6-chloro-2-(5-fluoro-4,6-dimethylpyrimidin-2-yl)-1-[6-(morpholin-4-yl)pyridin-3-yl]-2,3,4,9-tetrahydro-1H-pyrido[3,4-b]indole] as the compound, how does the pIC50 read?
Its pIC50 is 8.33.

Cc1ccc(C2c3[nH]c4cc(F)c(Cl)cc4c3CCN2c2nc(C)cc(C)n2)cc1 (stereo not shown) [Compound 66, 6-chloro-2-(4,6-dimethylpyrimidin-2-yl)-7-fluoro-1-(4-methylphenyl)-2,3,4,9-tetrahydro-1H-pyrido[3,4-b]indole] was tested. Which pIC50 did it give?
The pIC50 was 8.01.

With Cc1ccnc(N2CCc3c([nH]c4ccc(Cl)cc34)[C@H]2c2ccc(C)c(F)c2F)n1 [Compound 185, (1R)-6-chloro-1-(2,3-difluoro-4-methylphenyl)-2-(4-methylpyrimidin-2-yl)-2,3,4,9-tetrahydro-1H-pyrido[3,4-b]indole] as the compound, how does the pIC50 read?
The pIC50 was 7.79.

How did the pIC50 turn out when O=[N+]([O-])c1ccc2[nH]c3c(c2c1)CCN(c1nccc(C(F)(F)F)n1)C3c1cnc(N2CCOCC2)nc1 (stereo not shown) [Compound 323, 1-[2-(morpholin-4-yl)pyrimidin-5-yl]-6-nitro-2-[4-(trifluoromethyl)pyrimidin-2-yl]-2,3,4,9-tetrahydro-1H-pyrido[3,4-b]indole] was run?
Its pIC50 is 8.44.

How did the pIC50 turn out when Cc1ccc(C2c3[nH]c4cc(F)c(Cl)cc4c3CCN2c2ncc(F)c(C)n2)c(F)c1F (stereo not shown) [Compound 125, 6-chloro-1-(2,3-difluoro-4-methylphenyl)-7-fluoro-2-(5-fluoro-4-methylpyrimidin-2-yl)-2,3,4,9-tetrahydro-1H-pyrido[3,4-b]indole] was run?
Its pIC50 is 8.49.

Cc1ccc(C2c3[nH]c4ccc(Cl)cc4c3CCN2c2ncnc(C)n2)cc1 (stereo not shown) [Compound 322, 6-chloro-1-(4-methylphenyl)-2-(4-methyl-1,3,5-triazin-2-yl)-2,3,4,9-tetrahydro-1H-pyrido[3,4-b]indole] was tested. Which pIC50 did it give?
Its pIC50 is 7.59.

How did the pIC50 turn out when Cc1ccc([C@H]2c3[nH]c4ccc(Cl)cc4c3CCN2c2ncc(F)cn2)c(F)c1F [Compound 238, (1S)-6-chloro-1-(2,3-difluoro-4-methylphenyl)-2-(5-fluoropyrimidin-2-yl)-2,3,4,9-tetrahydro-1H-pyrido[3,4-b]indole] was run?
Its pIC50 is 9.05.

How did the pIC50 turn out when Cc1nc(C)nc(N2CCc3c([nH]c4ccc(Cl)cc34)C2c2ccc(N3CCOCC3)nc2F)n1 (stereo not shown) [Compound 459, 6-chloro-2-(4,6-dimethyl-1,3,5-triazin-2-yl)-1-[2-fluoro-6-(morpholin-4-yl)pyridin-3-yl]-2,3,4,9-tetrahydro-1H-pyrido[3,4-b]indole] was run?
Its pIC50 is 8.52.

How did the pIC50 turn out when Cc1nc(Cl)nc(N2CCc3c([nH]c4ccc(Cl)cc34)C2c2cnc(N3CCOCC3)nc2)n1 (stereo not shown) [Compound 289, 6-chloro-2-(4-chloro-6-methyl-1,3,5-triazin-2-yl)-1-[2-(morpholin-4-yl)pyrimidin-5-yl]-2,3,4,9-tetrahydro-1H-pyrido[3,4-b]indole] was run?
Its pIC50 is 7.57.

CN(C)c1ccc(C2c3[nH]c4cc(F)c(Cl)cc4c3CCN2c2ncc(F)cn2)cn1 (stereo not shown) [Compound 34, 5-[6-chloro-7-fluoro-2-(5-fluoropyrimidin-2-yl)-2,3,4,9-tetrahydro-1H-pyrido[3,4-b]indol-1-yl]-N,N-dimethylpyridin-2-amine] was tested. Which pIC50 did it give?
Its pIC50 is 7.49.

N#Cc1ccc(C2c3[nH]c4cc(F)c(Cl)cc4c3CCN2c2ncc(Cl)cn2)cc1 (stereo not shown) [Compound 59, 4-[6-chloro-2-(5-chloropyrimidin-2-yl)-7-fluoro-2,3,4,9-tetrahydro-1H-pyrido[3,4-b]indol-1-yl]benzonitrile] was tested. Which pIC50 did it give?
The pIC50 was 7.41.

How did the pIC50 turn out when Cc1nc(C)nc(N2CCc3c([nH]c4c(O)cc(Cl)cc34)C2c2ccc(N3CCOCC3)nc2)n1 (stereo not shown) [Compound 339, 6-chloro-2-(4,6-dimethyl-1,3,5-triazin-2-yl)-1-[6-(morpholin-4-yl)pyridin-3-yl]-2,3,4,9-tetrahydro-1H-pyrido[3,4-b]indol-8-ol] was run?
Its pIC50 is 7.87.

How did the pIC50 turn out when Cc1nc(C)nc(N2CCc3c([nH]c4ccc(Cl)cc34)C2c2ccc(N3C[C@@H]4C[C@H]3CO4)nc2)n1 (stereo partly drawn) [Compound 377, 6-chloro-2-(4,6-dimethyl-1,3,5-triazin-2-yl)-1-{6-[(1S,4S)-2-oxa-5-azabicyclo[2.2.1]heptan-5-yl]pyridin-3-yl}-2,3,4,9-tetrahydro-1H-pyrido[3,4-b]indole] was run?
Its pIC50 is 7.38.

Fc1cc2[nH]c3c(c2cc1Cl)CCN(c1ncc(Cl)cn1)C3c1cccc(F)c1F (stereo not shown) [Compound 131, 6-chloro-2-(5-chloropyrimidin-2-yl)-1-(2,3-difluorophenyl)-7-fluoro-2,3,4,9-tetrahydro-1H-pyrido[3,4-b]indole] was tested. Which pIC50 did it give?
The pIC50 was 8.04.

How did the pIC50 turn out when CN1CCN(c2ccc([C@H]3c4[nH]c5ccc(Cl)cc5c4CCN3c3nccc(C(F)(F)F)n3)cn2)CC1 [Compound 480, (1S)-6-chloro-1-[6-(4-methylpiperazin-1-yl)pyridin-3-yl]-2-[4-(trifluoromethyl)pyrimidin-2-yl]-2,3,4,9-tetrahydro-1H-pyrido[3,4-b]indole] was run?
The pIC50 was 8.49.

Fc1ccccc1C1c2[nH]c3ccc(Cl)cc3c2CCN1c1nccc(C(F)(F)F)n1 (stereo not shown) [Compound 341, 6-chloro-1-(2-fluorophenyl)-2-[4-(trifluoromethyl)pyrimidin-2-yl]-2,3,4,9-tetrahydro-1H-pyrido[3,4-b]indole] was tested. Which pIC50 did it give?
The pIC50 was 8.17.

Fc1c(Br)ccc(C2c3[nH]c4ccc(Cl)cc4c3CCN2c2nccc(C(F)(F)F)n2)c1F (stereo not shown) [Compound 270, 1-(4-bromo-2,3-difluorophenyl)-6-chloro-2-[4-(trifluoromethyl)pyrimidin-2-yl]-2,3,4,9-tetrahydro-1H-pyrido[3,4-b]indole] was tested. Which pIC50 did it give?
The pIC50 was 9.52.

Cc1nc(C)nc(N2CCc3c([nH]c4ccc(Cl)cc34)C2c2cnc(N3CCC3)nc2)n1 (stereo not shown) [Compound 345, 1-[2-(azetidin-1-yl)pyrimidin-5-yl]-6-chloro-2-(4,6-dimethyl-1,3,5-triazin-2-yl)-2,3,4,9-tetrahydro-1H-pyrido[3,4-b]indole] was tested. Which pIC50 did it give?
The pIC50 was 7.36.

With Cc1ccc(C2c3[nH]c4ccc(Cl)cc4c3CCN2c2nccc(N(C)C)n2)cc1 (stereo not shown) [Compound 307, 2-[6-chloro-1-(4-methylphenyl)-1,3,4,9-tetrahydro-2H-pyrido[3,4-b]indol-2-yl]-N,N-dimethylpyrimidin-4-amine] as the compound, how does the pIC50 read?
Its pIC50 is 7.00.

COC(=O)CCc1ccc(C2c3[nH]c4cc(F)c(Cl)cc4c3CCN2c2nccc(C(F)(F)F)n2)cc1 (stereo not shown) [Compound 164, methyl 3-(4-{6-chloro-7-fluoro-2-[4-(trifluoromethyl)pyrimidin-2-yl]-2,3,4,9-tetrahydro-1H-pyrido[3,4-b]indol-1-yl}phenyl)propanoate] was tested. Which pIC50 did it give?
Its pIC50 is 8.40.

With Cc1ccnc(N2CCc3c([nH]c4ccc(Cl)cc34)C2c2cnc(N3CCOCC3)nc2)n1 (stereo not shown) [Compound 312, 6-chloro-2-(4-methylpyrimidin-2-yl)-1-[2-(morpholin-4-yl)pyrimidin-5-yl]-2,3,4,9-tetrahydro-1H-pyrido[3,4-b]indole] as the compound, how does the pIC50 read?
Its pIC50 is 8.13.

How did the pIC50 turn out when FC(F)(F)c1ccnc(N2CCc3c([nH]c4ccc(Cl)cc34)C2c2ccc(-n3cnnc3)cc2)n1 (stereo not shown) [Compound 269, 6-chloro-1-[4-(4H-1,2,4-triazol-4-yl)phenyl]-2-[4-(trifluoromethyl)pyrimidin-2-yl]-2,3,4,9-tetrahydro-1H-pyrido[3,4-b]indole] was run?
Its pIC50 is 7.01.

How did the pIC50 turn out when C=Cc1ccc2[nH]c3c(c2c1)CCN(c1nccc(C(F)(F)F)n1)C3c1ccc(C)cc1 (stereo not shown) [Compound 291, 6-ethenyl-1-(4-methylphenyl)-2-[4-(trifluoromethyl)pyrimidin-2-yl]-2,3,4,9-tetrahydro-1H-pyrido[3,4-b]indole] was run?
The pIC50 was 8.36.

Cc1ccnc(N2CCc3c([nH]c4c(N)cc(Cl)cc34)C2c2ccc(N3CCOCC3)nc2)n1 (stereo not shown) [Compound 351, 6-chloro-2-(4-methylpyrimidin-2-yl)-1-[6-(morpholin-4-yl)pyridin-3-yl]-2,3,4,9-tetrahydro-1H-pyrido[3,4-b]indol-8-amine] was tested. Which pIC50 did it give?
The pIC50 was 8.68.

With Cc1cnn(-c2ccc3[nH]c4c(c3c2)CCN(c2nc(C(F)(F)F)nc(C(F)(F)F)n2)[C@H]4c2ccc(C)c(F)c2F)c1 [Compound 529, (1S)-2-[4,6-bis(trifluoromethyl)-1,3,5-triazin-2-yl]-1-(2,3-difluoro-4-methylphenyl)-6-(4-methyl-1H-pyrazol-1-yl)-2,3,4,9-tetrahydro-1H-pyrido[3,4-b]indole] as the compound, how does the pIC50 read?
Its pIC50 is 8.39.

Nc1ncc(C2c3[nH]c4ccc(Cl)c(F)c4c3CCN2c2nccc(C(F)(F)F)n2)cn1 (stereo not shown) [Compound 225, 5-{6-chloro-5-fluoro-2-[4-(trifluoromethyl)pyrimidin-2-yl]-2,3,4,9-tetrahydro-1H-pyrido[3,4-b]indol-1-yl}pyrimidin-2-amine] was tested. Which pIC50 did it give?
Its pIC50 is 7.74.

Cc1ccc(C2c3[nH]c4ccc(F)cc4c3CCN2c2nc(C(F)(F)F)cc(C(F)(F)F)n2)c(F)c1F (stereo not shown) [Compound 490, 2-[4,6-bis(trifluoromethyl)pyrimidin-2-yl]-1-(2,3-difluoro-4-methylphenyl)-6-fluoro-2,3,4,9-tetrahydro-1H-pyrido[3,4-b]indole] was tested. Which pIC50 did it give?
The pIC50 was 8.55.
